Results published in patent publication US20250295648A1 (priority 2024, published 2025).
Several values for one entry are separate records, joined by “and”; a condition that tells them apart may be missing. Identical values can stand only once.

Test system: L-DOPA-induced dyskinesia in Parkinson's disease patients
Experiment: Unified Dyskinesia Rating Scale (UDysRS) after 150% L-DOPA challenge
Conditions: for UDysRS Parts 3 and 4 most severe, collected value, mean / UDysRS Parts 3 and 4 most severe, collected value, median / UDysRS Parts 1, 2, 3, and 4 average, absolute change from baseline, mean / UDysRS Parts 1, 2, 3, and 4 average, absolute change from baseline, median / UDysRS Parts 1, 2, 3, and 4 average, collected value, mean / UDysRS Parts 1, 2, 3, and 4 average, collected value, median / UDysRS Parts 1, 2, 3, and 4 average, relative change from baseline (%), mean / UDysRS Parts 1, 2, 3, and 4 average, relative change from baseline (%), median / UDysRS Parts 1, 2, 3, and 4 most severe, absolute change from baseline, mean / UDysRS Parts 1, 2, 3, and 4 most severe, absolute change from baseline, median / UDysRS Parts 1, 2, 3, and 4 most severe, collected value, mean / UDysRS Parts 1, 2, 3, and 4 most severe, collected value, median / UDysRS Parts 1, 2, 3, and 4 most severe, relative change from baseline (%), mean / UDysRS Parts 1, 2, 3, and 4 most severe, relative change from baseline (%), median / UDysRS Parts 3 and 4 average, absolute change from baseline, mean / UDysRS Parts 3 and 4 average, absolute change from baseline, median / UDysRS Parts 3 and 4 average, collected value, mean / UDysRS Parts 3 and 4 average, collected value, median / UDysRS Parts 3 and 4 average, relative change from baseline (%), mean / UDysRS Parts 3 and 4 average, relative change from baseline (%), median / UDysRS Parts 3 and 4 most severe, absolute change from baseline, mean / UDysRS Parts 3 and 4 most severe, absolute change from baseline, median / UDysRS Parts 3 and 4 most severe, relative change from baseline (%), mean / UDysRS Parts 3 and 4 most severe, relative change from baseline (%), median: per protocol analysis set, N = 15; for UDysRS Parts 3 + 4, highest score of assessment sessions, mean change from baseline / UDysRS Part 3 sum of items, average of assessment sessions, mean change from baseline / UDysRS Part 3 sum of items, highest score of assessment sessions, mean change from baseline / UDysRS Parts 3 + 4, average of assessment sessions, mean change from baseline / UDysRS Total (Parts 1 to 4), average of assessment sessions, mean change from baseline / UDysRS Total (Parts 1 to 4), highest score of assessment sessions, mean change from baseline: per-protocol set; for UDysRS Part 3 sum of items, average of assessment sessions, mean change from baseline: p < 0.05 vs placebo
[1] = Visit 6 Clinic Efficacy Visit (Day 28)
[2] = Visit 7 Clinic Efficacy Visit (Day 42)
[3] = days 28 and 42, within NLX-112 group
[4] = individual patients A-E co-treated with amantadine
[5] = per-protocol set (n = 15), Baseline
[6] = Δ D 28 (end of up-titration), p < 0.01 vs baseline
[7] = Δ D 42 (end of stable dosing), p < 0.001 vs baseline
[8] = Δ D 42 (end of stable dosing), p < 0.01 vs baseline

Protocol: Patients were rated for dyskinesia at baseline and on days 28 (at end of up-titration period) and 42 (end of stable dosing period). Because the level of dyskinesia experienced by patients can vary over time, they were given 150% (i.e., 1.5×) of their regular L-DOPA dose (up to a maximum of 250 mg) as a challenge 30 min before each dyskinesia assessment to improve comparability between patients and between visits. Patients were filmed 30, 60 and 90 min after dosing with L-DOPA (˜5 min of filming each time). LID was assessed using the Unified Dyskinesia Rating Scale (UDysRS). Changes from baseline are shown for total score (i.e., Parts 1 to 4), for total objective score (i.e., Parts 3+4), and for the sum of Part 3 objective impairment assessment scores. Because objective LID assessment was carried out at 3 time-points (30, 60 and 90 min) following L-DOPA challenge, the above parameters were analyzed based on the most severe of the three scores as well as on the average score of the 3 time points.
The patient took 150% of their normal L-DOPA dose 30 minutes prior to the start of efficacy assessments (UDysRS) at Day 1 (Visit 2), Day 28 (Visit 6) and Day 42 (Visit 7).
The UDysRS is a rating instrument designed to assess the core features of dyskinesia in Parkinson's Disease. The UDysRS consists of 4 parts: • r. Part I, historical disability with regard to the patient's perceptions of the impact on activities of ADL of on-dyskinesia. • s. Part II, historical disability with regard to the patient's perceptions of the impact on ADL of off-dystonia. • t. Part III, objective impairment, which assesses severity of dyskinesia, affected body parts, and type of impairment (choreic vs. dystonic). • u. Part IV, objective disability, based on an evaluation of Part III activities.
Each item in the UDysRS is scored from 0 to 4, with a possible maximum total score of 104.
The UDysRS assessment would be performed at baseline (Day 1, Visit 2), Day 28 and Day 42 (Visits 6 and 7) starting approximately 30 minutes after the L-DOPA challenge on these days.
The data for all 3 assessments performed at each visit would be entered in the eCRF and the Investigator will highlight which of the assessments, corresponding to the assessment where the patient had most severe dyskinesia, that would be used in the descriptive summaries of data.
Change from baseline in the UDysRS total score to Visit 6 (Day 28) and Visit 7 (Day 42) respectively would be summarized using descriptive statistics. […] The same analysis would be done for UDysRS total objective score Part III and IV only.
The baseline value of the dependent variable has been included in the model as a continuous covariate.

## Cc1ccc(CNCC2(F)CCN(C(=O)c3ccc(F)c(Cl)c3)CC2)nc1 [NLX-112, (3-chloro-4-fluoro-phenyl)-[4-fluoro-4-{[(5-methyl-pyridin-2-ylmethyl)-amino]-methyl}piperidin-1-yl]methanone]
Visit 2 Baseline
  UDysRS Parts 3 and 4 most severe, collected value, mean: 15.5
  UDysRS Parts 3 and 4 most severe, collected value, median: 14.0
[1]
  UDysRS Parts 1, 2, 3, and 4 average, absolute change from baseline, mean: −4.82
  UDysRS Parts 1, 2, 3, and 4 average, absolute change from baseline, median: −3.00
  UDysRS Parts 1, 2, 3, and 4 average, collected value, mean: 25.33
  UDysRS Parts 1, 2, 3, and 4 average, collected value, median: 25.33
  UDysRS Parts 1, 2, 3, and 4 average, relative change from baseline (%), mean: −9.33%
  UDysRS Parts 1, 2, 3, and 4 average, relative change from baseline (%), median: −10.6%
  UDysRS Parts 1, 2, 3, and 4 most severe, absolute change from baseline, mean: −4.1
  UDysRS Parts 1, 2, 3, and 4 most severe, absolute change from baseline, median: −2.0
  UDysRS Parts 1, 2, 3, and 4 most severe, collected value, mean: 27.5
  UDysRS Parts 1, 2, 3, and 4 most severe, collected value, median: 28.0
  UDysRS Parts 1, 2, 3, and 4 most severe, relative change from baseline (%), mean: −10.2%
  UDysRS Parts 1, 2, 3, and 4 most severe, relative change from baseline (%), median: −6.45%
  UDysRS Parts 3 and 4 average, absolute change from baseline, mean: −2.49
  UDysRS Parts 3 and 4 average, absolute change from baseline, median: −1.67
  UDysRS Parts 3 and 4 average, collected value, mean: 11.60
  UDysRS Parts 3 and 4 average, collected value, median: 10.33
  UDysRS Parts 3 and 4 average, relative change from baseline (%), mean: −17.3%
  UDysRS Parts 3 and 4 average, relative change from baseline (%), median: −20.0%
  UDysRS Parts 3 and 4 most severe, absolute change from baseline, mean: −1.7
  UDysRS Parts 3 and 4 most severe, absolute change from baseline, median: −1.0
  UDysRS Parts 3 and 4 most severe, collected value, mean: 13.8
  UDysRS Parts 3 and 4 most severe, collected value, median: 12.0
  UDysRS Parts 3 and 4 most severe, relative change from baseline (%), mean: −15.8%
  UDysRS Parts 3 and 4 most severe, relative change from baseline (%), median: −8.33%
[2]
  UDysRS Parts 1, 2, 3, and 4 average, absolute change from baseline, mean: −6.51
  UDysRS Parts 1, 2, 3, and 4 average, absolute change from baseline, median: −7.67
  UDysRS Parts 1, 2, 3, and 4 average, collected value, mean: 23.64
  UDysRS Parts 1, 2, 3, and 4 average, collected value, median: 23.00
  UDysRS Parts 1, 2, 3, and 4 average, relative change from baseline (%), mean: −19.5%
  UDysRS Parts 1, 2, 3, and 4 average, relative change from baseline (%), median: −21.9%
  UDysRS Parts 1, 2, 3, and 4 most severe, absolute change from baseline, mean: −6.3
  UDysRS Parts 1, 2, 3, and 4 most severe, absolute change from baseline, median: −8.0
  UDysRS Parts 1, 2, 3, and 4 most severe, collected value, mean: 25.3
  UDysRS Parts 1, 2, 3, and 4 most severe, collected value, median: 24.0
  UDysRS Parts 1, 2, 3, and 4 most severe, relative change from baseline (%), mean: −19.0%
  UDysRS Parts 1, 2, 3, and 4 most severe, relative change from baseline (%), median: −25.8%
  UDysRS Parts 3 and 4 average, absolute change from baseline, mean: −3.31
  UDysRS Parts 3 and 4 average, absolute change from baseline, median: −3.33
  UDysRS Parts 3 and 4 average, collected value, mean: 10.78
  UDysRS Parts 3 and 4 average, collected value, median: 9.67
  UDysRS Parts 3 and 4 average, relative change from baseline (%), mean: −25.3%
  UDysRS Parts 3 and 4 average, relative change from baseline (%), median: −31.5%
  UDysRS Parts 3 and 4 most severe, absolute change from baseline, mean: −3.1
  UDysRS Parts 3 and 4 most severe, absolute change from baseline, median: −4.0
  UDysRS Parts 3 and 4 most severe, collected value, mean: 12.4
  UDysRS Parts 3 and 4 most severe, collected value, median: 11.0
  UDysRS Parts 3 and 4 most severe, relative change from baseline (%), mean: −21.0%
  UDysRS Parts 3 and 4 most severe, relative change from baseline (%), median: −31.6%
Day 28 and day 42
  UDysRS sum of Part 3 items, average of all 3 assessments, NLX-112 vs placebo: significantly greater change from baseline
Day 42
  net reduction in UDysRS total score, more than placebo: 3.9 points
[3]
  UDysRS sum of Part 3 items, most severe assessment, vs baseline: significant reduction
  UDysRS total score based on the average of 3 assessments, vs baseline: significant reduction
[4]
  UDysRS Part 3 + 4, Δ from baseline: +3 and +2 and −11 and −6 (2×)
  UDysRS Total, Δ from baseline: −2 and +7 and −11 and −8 and −6
Of the 5 amantadine-using patients on NLX-112
  amantadine-using patients with numerical reductions in UDysRS total score and total objective score: 3
[5]
  UDysRS Part 3 sum of items, average of assessment sessions, mean: 21.5
  UDysRS Part 3 sum of items, highest score of assessment sessions, mean: 24.7
  UDysRS Parts 3 + 4, average of assessment sessions, mean: 14.1
  UDysRS Parts 3 + 4, highest score of assessment sessions, mean: 15.5
  UDysRS Total (Parts 1 to 4), average of assessment sessions, mean: 30.1
  UDysRS Total (Parts 1 to 4), highest score of assessment sessions, mean: 31.6
Δ D 28 (end of up-titration)
  UDysRS Parts 3 + 4, highest score of assessment sessions, mean change from baseline: −1.7
Δ D 28 (end of up-titration), p < 0.001 vs baseline
  UDysRS Part 3 sum of items, average of assessment sessions, mean change from baseline: −5.5
[6]
  UDysRS Part 3 sum of items, highest score of assessment sessions, mean change from baseline: −5.5
  UDysRS Parts 3 + 4, average of assessment sessions, mean change from baseline: −2.5
  UDysRS Total (Parts 1 to 4), average of assessment sessions, mean change from baseline: −4.8
Δ D 28 (end of up-titration), p < 0.05 vs baseline
  UDysRS Total (Parts 1 to 4), highest score of assessment sessions, mean change from baseline: −4.1
Δ D 42 (end of stable dosing), p < 0.0001 vs baseline
  UDysRS Part 3 sum of items, average of assessment sessions, mean change from baseline: −7.1
[7]
  UDysRS Part 3 sum of items, highest score of assessment sessions, mean change from baseline: −7.8
  UDysRS Parts 3 + 4, average of assessment sessions, mean change from baseline: −3.3
  UDysRS Total (Parts 1 to 4), average of assessment sessions, mean change from baseline: −6.5
[8]
  UDysRS Parts 3 + 4, highest score of assessment sessions, mean change from baseline: −3.1
  UDysRS Total (Parts 1 to 4), highest score of assessment sessions, mean change from baseline: −6.3
